Data as given in PubChem BioAssay AID256 (DTP/NCI, 2004).
Toxic doses and inconclusive results are not listed. The calls were made as follows: active = survival T/C of 150% or more; inactive = T/C below 125% in these data.

Test system: CD2F1 mice, L1210 leukemia ip, survival T/C
Experiment: NCI In Vivo Anticancer Drug Screen. Data for tumor model L1210 Leukemia (intraperitoneal) in CD2F1 (CDF1) mice
Conditions: endpoint: mean survival time, higher = longer survival
In short: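 Read-out first: treated-group measurement over vehicle-control measurement, expressed as a ratio. Animals bore a transplanted tumor line and were dosed with compound or vehicle.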

Measured: T/C

COC(=O)C(N)CCCCNc1ccc2c(cc1=O)C(NC(C)=O)CCc1cc(OC)c(OC)c(OC)c1-2 (stereo not drawn)
inactive: dose: 3.1 mg/kg/injection, schedule: Q03HX008 (ip), vehicle: saline 105 % of control | dose: 3.1 mg/kg/injection, schedule: Q03HX016 (ip), vehicle: saline 91 % of control | dose: 3.1 mg/kg/injection, schedule: Q03HX024 (ip), vehicle: saline 96 % of control | dose: 6.3 mg/kg/injection, schedule: Q03HX008 (ip), vehicle: saline 92 % of control | dose: 6.3 mg/kg/injection, schedule: Q03HX016 (ip), vehicle: saline 103 % of control | dose: 6.3 mg/kg/injection, schedule: Q03HX024 (ip), vehicle: saline 102 % of control | dose: 12.5 mg/kg/injection, schedule: Q01DX009 (ip), vehicle: saline 91 % of control | dose: 12.5 mg/kg/injection, schedule: Q01DX009 (sc), vehicle: saline 88 % of control | dose: 12.5 mg/kg/injection, schedule: Q03HX008 (ip), vehicle: saline 97 % of control | dose: 12.5 mg/kg/injection, schedule: Q03HX016 (ip), vehicle: saline 97 % of control | dose: 12.5 mg/kg/injection, schedule: Q03HX024 (ip), vehicle: saline 107 % of control | dose: 25.0 mg/kg/injection, schedule: Q01DX001 (ip), vehicle: saline 102 % of control | dose: 25.0 mg/kg/injection, schedule: Q01DX001 (oral), vehicle: saline 100 % of control | dose: 25.0 mg/kg/injection, schedule: Q01DX001 (sc), vehicle: saline 88 % of control | dose: 25.0 mg/kg/injection, schedule: Q01DX009 (ip), vehicle: saline 100 % of control | dose: 25.0 mg/kg/injection, schedule: Q01DX009 (oral), vehicle: saline 96 % of control | dose: 25.0 mg/kg/injection, schedule: Q01DX009 (sc), vehicle: saline 91 % of control | dose: 25.0 mg/kg/injection, schedule: Q03HX008 (ip), vehicle: saline 105 % of control | dose: 25.0 mg/kg/injection, schedule: Q03HX016 (ip), vehicle: saline 94 % of control | dose: 25.0 mg/kg/injection, schedule: Q03HX024 (ip), vehicle: saline 108 % of control | dose: 25.0 mg/kg/injection, schedule: Q04DX003 (ip), vehicle: saline 100 % of control | dose: 25.0 mg/kg/injection, schedule: Q08DX002 (ip), vehicle: saline 91 % of control | dose: 50.0 mg/kg/injection, schedule: Q01DX001 (ip), vehicle: saline 94 % of control | dose: 50.0 mg/kg/injection, schedule: Q01DX001 (oral), vehicle: saline 94 % of control | dose: 50.0 mg/kg/injection, schedule: Q01DX001 (sc), vehicle: saline 92 % of control | dose: 50.0 mg/kg/injection, schedule: Q01DX009 (ip), vehicle: saline 103 % of control | dose: 50.0 mg/kg/injection, schedule: Q01DX009 (oral), vehicle: saline 91 % of control | dose: 50.0 mg/kg/injection, schedule: Q01DX009 (sc), vehicle: saline 91 % of control | dose: 50.0 mg/kg/injection, schedule: Q03HX008 (ip), vehicle: saline 107 % of control | dose: 50.0 mg/kg/injection, schedule: Q03HX016 (ip), vehicle: saline 97 % of control | dose: 50.0 mg/kg/injection, schedule: Q03HX024 (ip), vehicle: saline 111 % of control | dose: 50.0 mg/kg/injection, schedule: Q04DX003 (ip), vehicle: saline 92 % of control | dose: 50.0 mg/kg/injection, schedule: Q08DX002 (ip), vehicle: saline 103 % of control | dose: 53.0 mg/kg/injection, schedule: Q01DX005 (ip), vehicle: saline 108 % of control | dose: 53.0 mg/kg/injection, schedule: Q01DX009 (ip), vehicle: saline 107 % of control | dose: 53.0 mg/kg/injection, schedule: Q04DX003 (ip), vehicle: saline 87 % of control | dose: 80.0 mg/kg/injection, schedule: Q01DX005 (ip), vehicle: saline 114 % of control | dose: 80.0 mg/kg/injection, schedule: Q01DX009 (ip), vehicle: saline 110 % of control | dose: 80.0 mg/kg/injection, schedule: Q04DX003 (ip), vehicle: saline 87 % of control | dose: 100.0 mg/kg/injection, schedule: Q01DX001 (ip), vehicle: saline with Tween-80 106 % of control | dose: 100.0 mg/kg/injection, schedule: Q01DX001 (ip), vehicle: saline 88 % of control | dose: 100.0 mg/kg/injection, schedule: Q01DX001 (oral), vehicle: saline 96 % of control | dose: 100.0 mg/kg/injection, schedule: Q01DX001 (sc), vehicle: saline 92 % of control | dose: 100.0 mg/kg/injection, schedule: Q01DX009 (ip), vehicle: saline 114 % of control | dose: 100.0 mg/kg/injection, schedule: Q01DX009 (oral), vehicle: saline 91 % of control | dose: 100.0 mg/kg/injection, schedule: Q01DX009 (sc), vehicle: saline 92 % of control | dose: 100.0 mg/kg/injection, schedule: Q04DX002 (ip), vehicle: saline 108 % of control | dose: 100.0 mg/kg/injection, schedule: Q04DX003 (ip), vehicle: saline 91 % of control | dose: 100.0 mg/kg/injection, schedule: Q08DX002 (ip), vehicle: saline 100 % of control | dose: 120.0 mg/kg/injection, schedule: Q01DX005 (ip), vehicle: saline 118 % of control | dose: 120.0 mg/kg/injection, schedule: Q01DX009 (ip), vehicle: saline 114 % of control | dose: 120.0 mg/kg/injection, schedule: Q04DX003 (ip), vehicle: saline 98 % of control | dose: 180.0 mg/kg/injection, schedule: Q01DX005 (ip), vehicle: saline 118 % of control | dose: 180.0 mg/kg/injection, schedule: Q01DX009 (ip), vehicle: saline 105 % of control | dose: 180.0 mg/kg/injection, schedule: Q04DX003 (ip), vehicle: saline 96 % of control | dose: 200.0 mg/kg/injection, schedule: Q01DX001 (ip), vehicle: saline with Tween-80 106 % of control | dose: 200.0 mg/kg/injection, schedule: Q01DX001 (ip), vehicle: saline 97 % of control | dose: 200.0 mg/kg/injection, schedule: Q01DX001 (oral), vehicle: saline 94 % of control | dose: 200.0 mg/kg/injection, schedule: Q01DX001 (sc), vehicle: saline 97 % of control | dose: 200.0 mg/kg/injection, schedule: Q01DX009 (ip), vehicle: saline 118 % of control | dose: 200.0 mg/kg/injection, schedule: Q01DX009 (oral), vehicle: saline 96 % of control | dose: 200.0 mg/kg/injection, schedule: Q01DX009 (sc), vehicle: saline 94 % of control | dose: 200.0 mg/kg/injection, schedule: Q04DX002 (ip), vehicle: saline 104 % of control | dose: 200.0 mg/kg/injection, schedule: Q04DX003 (ip), vehicle: saline 103 % of control | dose: 200.0 mg/kg/injection, schedule: Q08DX002 (ip), vehicle: saline 111 % of control | dose: 270.0 mg/kg/injection, schedule: Q01DX005 (ip), vehicle: saline 90 % of control | dose: 270.0 mg/kg/injection, schedule: Q04DX003 (ip), vehicle: saline 98 % of control | dose: 400.0 mg/kg/injection, schedule: Q01DX001 (ip), vehicle: saline with Tween-80 107 % of control | dose: 400.0 mg/kg/injection, schedule: Q01DX001 (ip), vehicle: saline 108 % of control | dose: 400.0 mg/kg/injection, schedule: Q01DX001 (oral), vehicle: saline 96 % of control | dose: 400.0 mg/kg/injection, schedule: Q01DX001 (sc), vehicle: saline 100 % of control | dose: 400.0 mg/kg/injection, schedule: Q04DX003 (ip), vehicle: saline 113 % of control | dose: 400.0 mg/kg/injection, schedule: Q08DX002 (ip), vehicle: saline 113 % of control | dose: 800.0 mg/kg/injection, schedule: Q01DX001 (oral), vehicle: saline 94 % of control

Nc1ccc(-c2ccc(N)cc2)cc1
inactive: dose: 100.0 mg/kg/injection, schedule: Q01DX009 (ip), vehicle: saline with Tween-80 94 % of control | dose: 100.0 mg/kg/injection, schedule: Q04DX003 (ip), vehicle: saline with Tween-80 101 % of control | dose: 200.0 mg/kg/injection, schedule: Q01DX009 (ip), vehicle: saline with Tween-80 90 % of control | dose: 200.0 mg/kg/injection, schedule: Q04DX003 (ip), vehicle: saline with Tween-80 101 % of control | dose: 400.0 mg/kg/injection, schedule: Q01DX009 (ip), vehicle: saline with Tween-80 100 % of control | dose: 400.0 mg/kg/injection, schedule: Q04DX003 (ip), vehicle: saline with Tween-80 96 % of control

COC(=O)C1C2CC(O)C(C2)C1C(=O)OC (stereo not drawn)
inactive: dose: 12.5 mg/kg/injection, schedule: Q01DX009 (ip), vehicle: saline with Tween-80 97 % of control | dose: 25.0 mg/kg/injection, schedule: Q01DX009 (ip), vehicle: saline with Tween-80 101 % of control | dose: 50.0 mg/kg/injection, schedule: Q01DX009 (ip), vehicle: saline with Tween-80 104 % of control
